Assay type in all cases: cell-based, human
The test system of data set [1] is Notch-1. Put plainly: Notch-1 siRNA in CaSki cells, Notch-1 and Notch-4 Western blot. How it is done: The human papilloma virus (HPV)-positive human cervical cancer cell line CaSki was obtained from ATCC (Rockville, Md.) and cultured in DMEM medium with 10% FBS. Double-stranded synthetic 21-mer RNA oligonucleotides (siRNAs) were purchased from Dharmacon (Lafayette, Colo.). […] Sequence specificity was determined by BLAST searches for the uniqueness. Transfection of CaSki human cervical cancer cells with siRNAs (200 nM siRNA oligos/60 mm dish) was performed by using Oligofectamine Transfection Reagents (InVitrogen) according to manufacturer's instructions.
At 24 and 48 hours after transfection with Notch-1 siRNA or scrambled control siRNA, the CaSki cells were assayed for Notch-1 and Notch-4 expression by Western blotting. Immunoblotting was performed using antibodies to Notch-1 (C-20), and Notch-4 (H-225) from Santa Cruz Biotechnology (Santa Cruz, Calif.). Secondary anti-goat, anti-mouse, anti-rabbit and anti-rat antibodies (IgG-HR1) were purchased from Vector Laboratories (Burlingame, Calif.), Santa Cruz Biotechnology and Amersham Biosciences. For Western blot analysis, equal amounts of protein extracted from each sample (30 μg) were loaded into pre-cast 7% NuPAGE Tris-acetate gels or 4-12% NuPAGE Bis-tris gels (Invitrogen). Proteins were separated by SDS-PAGE and transferred to polyvinylidene difluoride membranes (Bio-Rad, Hercules, Calif.) using Invitrogen's buffering system. […]
In general terms: A western blot detects proteins with antibodies after separation by electrophoresis.

The subject of the next data set is CaSki cells. The data set is described as follows: LY411,575 combinations in CaSki cells, growth inhibition and isobologram analysis. The note with it: CaSki. How it is done: To evaluate the possibility that inhibition of Notch signaling may sensitize advanced cervical cancers to the effect of cisplatin chemotherapy because Notch-1 protects these cells from apoptosis through the AKT and NF-κB pathways, a non-peptide, benzodiazepine gamma-secretase inhibitor, LY411,575 (Wong et al., 2004, J Biol. Chem. 279:12876-82) was tested in combination with a AKT inhibitor (AKT inhibitor I) or a proteasome inhibitor (MG-132) for effects on cell growth. The latter class of drugs is thought to act primarily by preventing NF-KB activation (Adams, J, 2002, Curr Opin Oncol 14:628-634; Richardson, P, 2003, Cancer Treat Rev 29 Suppl 1:33-39) caused by proteasome-mediated degradation of IκB.
To determine whether LY411,575 potentiates the effect of AKT inhibitor I or MG-132, CaSki cells were treated with (a) LY411,575 (6.25 μM to 50 μM) and AKT inhibitor 1 (0.5 μM to 75 μM), or (b) LY411,575 (1.5 μM to 200 μM) and MG-132 (0.05 μM to 0.2). Following the drug treatment, the cells were tested for growth inhibition as described above. LY411,575 was synthesized according to methods well known in the art (e.g., see WO-09828268, which is incorporated by reference), and AKT inhibitor I and MG-132 were purchased from Calbiochem.
The IC50 values of LY411,575 in the presence of various concentrations of AKT inhibitor I or MG-132 were measured. […]

The next data set relates to RJ002L melanoma cells. Put plainly: Dosing study versus chemotherapeutic agents, killing of RJ002L melanoma cells. How it is done: An initial dosing study comparing z-Leu-Leu-Nle-CHO against three different chemotherapeutic agents (i.e., adriamycin, etoposide, and cisplatin) was performed to evaluate the relative effectiveness of z-Leu-Leu-Nle-CHO in killing melanoma cells. In agreement with a previous report by Soengas, M. S. et al., 2001, Nature 409.207-211, SK-MeI-28 cells, carrying a mutated p53, were relatively resistant to killing by adriamycin, as well as to killing by other chemotherapeutic agents. For SK-MeI-28 melanoma cells, the maximal apoptotic response for adriamycin, etoposide, cisplatin, and z-Leu-Leu-Nle-CHO was 12.0%, 2.6%, 4.0%, and 29.4%, respectively. For RJ002L melanoma cells, the maximal apoptotic response for adriamycin, etoposide, cisplatin, and z-Leu-Leu-Nle-CHO was 23.9%, 12.7%, 3.4%, and 45.7%, respectively.

The test system of data set [2] is Notch-1. Put plainly: Notch-1 cleavage in CaSki cells (Western blot N^TM, N^IC). The settings on record: 0-5 μM, 24 h. How it is done:
The CaSki human cervical cancer cells were incubated for 24 h with various concentrations (0-5 μM) of the dual inhibitor z-Leu-Leu-Nle-CHO (Calbiochem) (FIG. 13A). The cells were then collected and assayed for Notch-1 and Notch-4 expression by Western blotting. Immunoblotting was performed using antibodies to the transmembrane portion of Notch-1 (N^TM) (Santa Cruz Biotechnology (Santa Cruz, Calif.)), or the intracellular portion of Notch-1 (N^IC) (Abcam, Inc. (Cambridge, Mass.)). Secondary anti-goat, anti-rnouse, anti-rabbit and anti-rat antibodies (IgG-HRP) were purchased from Vector Laboratories (Burlingame, Calif.), Santa Cruz Biotechnology and Amersham Biosciences. For Western blot analysis, equal amounts of protein extracted from each sample (20 μg) were loaded into pre-cast 7% NuPAGE Tris-acetate gels or 4-12% NuPAGE Bis-tris gels (Invitrogen). Proteins were separated by SDS-PAGE and transferred to polyvinylidene difluoride membranes (Bio-Rad, Hercules, Calif.) using Invitrogen's buffering system. The membranes were incubated with the indicated primary antibodies, washed, and visualized by incubation with horseradish peroxidase-conjugated secondary antibodies and chemiluminescent reagents (Roche Diagnostics Corporation, Indianapolis, Ind.).

Square brackets hold non-standard residues; d marks the D form. Peptide text beside a SMILES is read from it. * marks the point of attachment. Nle = CCCC[C@H](N)C(=O)O; Cbz = O=C(OCc1ccccc1)*

For the molecule “5′-AAGTGTCTGAGGCCAGCAAGA-3′ [Notch-1 siRNA]”, the Notch-1 signaling result with Notch-1 [1] (200 nM siRNA, 24 and 48 hours after transfection) was “effective in genetically inhibiting Notch-1 signaling”. For the same molecule, the Notch-4 levels entry with Notch-1 [1] (data not shown) was “did not effect levels of Notch-4”.

As to `CC(C)C[C@@H](C=O)NC(=O)[C@H](CC(C)C)NC(=O)[C@H](CC(C)C)NC(=O)OCc1ccccc1` [MG-132, benzoxycarbonyl-Leucyl-Leucyl-Leucyl-aldehyde] (Cbz-Leu-Leu-Leu-aldehyde), the “combination with LY411,575 in cytotoxicity assays / isobologram” value with CaSki cells is “striking synergism”.

As for `CCCC[C@@H](C=O)NC(=O)[C@H](CC(C)C)NC(=O)[C@H](CC(C)C)NC(=O)OCc1ccccc1` [z-Leu-Leu-Nle-CHO, N-benzyloxycarbonyl-leucyl-leucyl-norleucinal] (Cbz-Leu-Leu-[Nle]-aldehyde), in the data set on RJ002L melanoma cells, the maximal apoptotic response is 45.7%. Besides, the “cleaved and transmembrane Notch-1” value with Notch-1 [2] is reported as “dose-dependent reduction in cleaved Notch-1”.

These data come from patent publication US20080220416A1, “Compositions for Inhibiting Cell Growth and Inducing Apoptosis in Cancer Cells and Methods of Use Thereof” (THE BOARD OF TRUSTEES OF THE UNIVERSITY OF ILLINOI, priority 2004, published 2008).
